# Like-named read-outs stand apart in the source and are kept apart here.
# What was measured:
# Type in all cases: cell-based
# [1] = tested on: NIH-OVCAR-3; assay: Cell viability analysis (WST-1), NIH-OVCAR-3; settings: Homo sapiens, OVCAR-3, 72 h, Table 4, repeated experiments, drug 10 μM, read-out: survival rate (viability) of cancer cells, NIH-OVCAR-3
# Procedure, shortened: (§1)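 Absorbance at OD450 nm after WST-1 incubation gave the survival rate. Cells (3000/well) were exposed to drug at 10 μM for 72 hours, then given WST-1 diluted 9:1 in medium for 30 to 90 minutes at 37° C.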
# [2] = tested on: A549 (Lung Adenocarcinoma); assay: Cell viability analysis (WST-1), A549; settings: Homo sapiens, A549, 72 h
# [3] = tested on: 786-O; assay: Cell viability analysis (WST-1), 786-O; settings: Homo sapiens, 786-0, 72 h, Table 4, repeated experiments, drug 10 μM, read-out: survival rate (viability) of cancer cells, 786-O
# Procedure, shortened: as §1
# [4] = tested on: MKN-45 (Gastric Adenocarcinoma); assay: Cell viability analysis (WST-1), MKN-45; settings: Homo sapiens, MKN-45, 72 h
# [5] = tested on: LoVo (Colorectal Adenocarcinoma); assay: Cell viability analysis (WST-1), LoVo; settings: Homo sapiens, LoVo, 72 h
# [6] = tested on: cancer cell lines; assay: Growth inhibitory effects on the panel of cancer cell lines; settings: count of cancer cell lines inhibited; drug 10 μM, 72 hours
# [7] = tested on: MCF7 (Mammary Gland, Adenocarcinoma); assay: Cell viability analysis (WST-1), MCF7; settings: Homo sapiens, MCF7, 72 h
# [8] = tested on: T24; assay: Cell viability analysis (WST-1), T24; settings: Homo sapiens, T-24, 72 h, Table 4, repeated experiments, drug 10 μM, read-out: survival rate (viability) of cancer cells, T24
# Procedure, shortened: as §1
# [9] = tested on: U2OS; assay: Cell viability analysis (WST-1), U2OS; settings: Homo sapiens, U2OS, 72 h, Table 4, repeated experiments, drug 10 μM, read-out: survival rate (viability) of cancer cells, U2OS
# Procedure, shortened: as §1
# [10] = tested on: HeLa (Cervix Adenocarcinoma); assay: Cell viability analysis (WST-1), HeLa; settings: Homo sapiens, HeLa, 72 h
# [11] = tested on: AsPC-1; assay: Cell viability analysis (WST-1), AsPC-1; settings: Homo sapiens, ASPC1, 72 h, Table 4, repeated experiments, drug 10 μM, read-out: survival rate (viability) of cancer cells, AsPC-1
# Procedure, shortened: as §1
# [12] = tested on: PC3 (Prostate Adenocarcinoma); assay: Cell viability analysis (WST-1), PC3; settings: 72 h
# [13] = tested on: A375 (Amelanotic Melanoma); assay: Cell viability analysis (WST-1), A375; settings: Homo sapiens, A-375, 72 h
# [14] = tested on: HCT116 (Colorectal Carcinoma); assay: Cell viability analysis (WST-1), HCT116; settings: Homo sapiens, HCT-116, 72 h
# [15] = tested on: HepG2 (Hepatocellular Carcinoma); assay: Cell viability analysis (WST-1), HepG2; settings: Homo sapiens, HepG2, 72 h
# [16] = tested on: BxPC-3; assay: Cell viability analysis (WST-1), BxPC-3; settings: Homo sapiens, BXPC-3, 72 h, Table 4, repeated experiments, drug 10 μM, read-out: survival rate (viability) of cancer cells, BxPC-3
# Procedure, shortened: as §1
# [17] = tested on: SAS; assay: Cell viability analysis (WST-1), SAS; settings: 72 h, Table 4, repeated experiments, drug 10 μM, read-out: survival rate (viability) of cancer cells, SAS
# Procedure, shortened: as §1
# [18] = tested on: TOV-21G; assay: Cell viability analysis (WST-1), TOV-21G; settings: Homo sapiens, TOV21G, 72 h, Table 4, repeated experiments, drug 10 μM, read-out: survival rate (viability) of cancer cells, TOV-21G
# Procedure, shortened: as §1
# [19] = tested on: C-33A; assay: Cell viability analysis (WST-1), C-33A; settings: Homo sapiens, C-33-A, 72 h, Table 4, repeated experiments, drug 10 μM, read-out: survival rate (viability) of cancer cells, C-33A
# Procedure, shortened: as §1
structure (smiles),measurement,setting,value
"CCC(C)(C)C(=O)O[C@H]1C[C@@H](C)C=C2C=C[C@H](C)[C@H](CC[C@@H]3C[C@@H](O)CC(=O)O3)[C@H]21 [Simvastatin (Zocor), Simvastatin]",viability at 10 µM,[1],98.4%
same,viability at 10 µM,"[2]; Table 3, drug 10 μM, WST-1, OD450 nm, read-out: survival rate (viability) of cancer cells, A549",126%
same,viability at 10 µM,"[2]; Table 4, repeated experiments, drug 10 μM, WST-1, read-out: survival rate (viability) of cancer cells, A549",110%
same,viability at 10 µM,[3],87.8%
same,viability at 10 µM,"[4]; Table 3, drug 10 μM, WST-1, OD450 nm, read-out: survival rate (viability) of cancer cells, MKN-45",79.4%
same,viability at 10 µM,"[4]; Table 4, repeated experiments, drug 10 μM, WST-1, read-out: survival rate (viability) of cancer cells, MKN-45",92.6%
same,viability at 10 µM,"[5]; Table 3, drug 10 μM, WST-1, OD450 nm, read-out: survival rate (viability) of cancer cells, LoVo",99.9%
same,viability at 10 µM,"[5]; Table 4, repeated experiments, drug 10 μM, WST-1, read-out: survival rate (viability) of cancer cells, LoVo",89.3%
same,Numbers of inhibitory effect on cancer cell line,[6],0
same,viability at 10 µM,"[7]; Table 3, drug 10 μM, WST-1, OD450 nm, read-out: survival rate (viability) of cancer cells, MCF7",81.5%
same,viability at 10 µM,"[7]; Table 4, repeated experiments, drug 10 μM, WST-1, read-out: survival rate (viability) of cancer cells, MCF-7",88.8%
same,viability at 10 µM,[8],89.6%
same,viability at 10 µM,[9],65.6%
same,viability at 10 µM,"[10]; Table 3, drug 10 μM, WST-1, OD450 nm, read-out: survival rate (viability) of cancer cells, HeLa",104%
same,viability at 10 µM,"[10]; Table 4, repeated experiments, drug 10 μM, WST-1, read-out: survival rate (viability) of cancer cells, HeLa",100%
same,viability at 10 µM,[11],78.2%
same,viability at 10 µM,"[12]; Table 3, drug 10 μM, WST-1, OD450 nm, read-out: survival rate (viability) of cancer cells, PC3",91.8%
same,viability at 10 µM,"[12]; Table 4, repeated experiments, drug 10 μM, WST-1, read-out: survival rate (viability) of cancer cells, PC-3",92.8%
same,viability at 10 µM,"[13]; Table 3, drug 10 μM, WST-1, OD450 nm, lower viability = better inhibition, read-out: survival rate (viability) of cancer cells, A375",114%
same,viability at 10 µM,"[13]; Table 4, repeated experiments, drug 10 μM, WST-1, read-out: survival rate (viability) of cancer cells, A375",78.6%
same,viability at 10 µM,"[14]; Table 3, drug 10 μM, WST-1, OD450 nm, read-out: survival rate (viability) of cancer cells, HCT116 (WT)",124%
same,viability at 10 µM,"[14]; Table 4, repeated experiments, drug 10 μM, WST-1, read-out: survival rate (viability) of cancer cells, HCT116",83.2%
same,viability at 10 µM,"[15]; Table 3, drug 10 μM, WST-1, OD450 nm, read-out: survival rate (viability) of cancer cells, HepG2",113%
same,viability at 10 µM,"[15]; Table 4, repeated experiments, drug 10 μM, WST-1, read-out: survival rate (viability) of cancer cells, HepG2",124%
same,viability at 10 µM,[16],81.8%
same,viability at 10 µM,[17],83.9%
same,viability at 10 µM,[18],63.6%
same,viability at 10 µM,[19],112%

# Source: patent US20170304388A1, “NEW INDICATION OF CARDIOVASCULAR DRUGS FOR PREPARATION OF CANCER INHIBITION PHARMACEUTICAL COMPOSITION” (LAUNX BIOMEDICAL CO., LTD., priority 2014, published 2017)
